# Results from PMC11443518, “Undescribed Amaryllidaceae Alkaloids from Zephyranthes citrina and Their Cytotoxicity” (Journal of Natural Products, 2024).
# Like-named read-outs stand apart in the source and are kept apart here.
# Assays:
# hBChE = molecular target: T1, hBChE (Homo sapiens, UniProt P06276); assay: biochemical; assay type: biochemical; details: recombinant BChE, Ellman, 37 °C
# T1 construct: purchased University Hradec Kralove, Department of Chemistry, Faculty of Science
# Experimental: (§1) The hAChE and hBChE activities were determined using a modified method of Ellman, as described by Hrabinova and co-workers against recombinant AChE and recombinant BChE (purchased from University Hradec Kralove, Department of Chemistry, Faculty of Science).[43] Other used chemicals were phosphate buffer solution (PBS, pH = 7.4), 5,5′-dithio-bis(2-nitrobenzoic) acid (Ellman’s reagent, DTNB), acetylthiocholine iodide (ATChI), butyrylthiocholine iodide (BTChI), and dimethyl sulfoxide (DMSO) (all chemicals were purchased from Sigma-Aldrich, Prague, Czech Republic).
# (§2) Briefly, 8.3 μL of the corresponding enzyme, 283 μL of 5 mM DTNB, and 8.3 μL of the sample dilution in DMSO in different concentrations were added to the microplate. These solutions were incubated for 5 min at 37 °C. Then, 33.3 μL of 10 mM substrate (ATChI or BTChI) was added to initiate the reaction, and the whole reaction mixture was incubated for 2 min at 37 °C. […] This difference after 1 min was used to calculate the percentage of inhibitory potential of the given derivative. Each measurement was repeated three times for every concentration of the compound. 8.3 μL DMSO was used as a blank. The % inhibition was calculated according to the following formula: [drawing 3] where ΔABl is the increase of absorbance of the blank sample and ΔASa is the increase of absorbance of the measured sample.
# hAChE = molecular target: T2, hAChE (Homo sapiens, UniProt P22303); assay: biochemical; assay type: biochemical; details: recombinant AChE, Ellman, 37 °C
# T2 construct: purchased University Hradec Kralove, Department of Chemistry, Faculty of Science
# T2 sequence (P22303 32-614): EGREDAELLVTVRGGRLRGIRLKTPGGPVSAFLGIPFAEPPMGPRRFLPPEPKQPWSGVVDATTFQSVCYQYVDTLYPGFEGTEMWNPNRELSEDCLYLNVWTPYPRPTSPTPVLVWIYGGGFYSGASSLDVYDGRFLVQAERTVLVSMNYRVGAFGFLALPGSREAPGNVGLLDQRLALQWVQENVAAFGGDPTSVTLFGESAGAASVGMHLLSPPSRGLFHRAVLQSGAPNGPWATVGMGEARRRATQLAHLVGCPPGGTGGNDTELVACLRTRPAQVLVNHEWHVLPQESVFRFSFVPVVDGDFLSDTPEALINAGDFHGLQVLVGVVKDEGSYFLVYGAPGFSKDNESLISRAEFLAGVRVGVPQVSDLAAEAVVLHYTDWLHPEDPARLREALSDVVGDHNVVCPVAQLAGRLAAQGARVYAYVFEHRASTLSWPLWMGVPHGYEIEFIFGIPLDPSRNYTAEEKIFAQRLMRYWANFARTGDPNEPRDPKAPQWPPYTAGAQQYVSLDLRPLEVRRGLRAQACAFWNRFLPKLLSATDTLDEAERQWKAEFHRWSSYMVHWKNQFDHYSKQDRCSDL
# Experimental: as §1, §2
# A549 (lung carcinoma) = assay: WST-1 cell proliferation assay, cytotoxicity screening; assay type: cell-based; details: Homo sapiens, read-out: growth percent (GP) A549
# From the text: (§3) Selected human tumor and nontumor cell lines Jurkat (acute T-cell leukemia), MOLT-4 (acute lymphoblastic leukemia), A549 (lung carcinoma), HT-29 (colorectal adenocarcinoma), PANC-1 (pancreas epithelioid carcinoma), A2780 (ovarian carcinoma), HeLa (cervix adenocarcinoma), MCF-7 (breast adenocarcinoma), SAOS-2 (osteosarcoma) and MRC-5 (nontumor lung fibroblasts) were purchased from European Collection of Authenticated Cell Cultures (ECACC, Salisbury, UK) and cultured according to the provider’s culture method guidelines. […] The cells in low passage number (nontumor primary cell line MRC-5 was used for a maximum of 10 passages and cancer cell lines were used for a maximum of 20 passages) and in an exponential growth phase were used for this study.
# (§4) Each cell line was seeded at a previously established optimal density (1 × 10^3 to 50 × 10^3 cells per well) in a 96-well plate (TPP, Trasadingen, Switzerland) and cells were allowed to settle overnight. During screening tests for cytotoxicity, cells were treated with alkaloids at a final concentration of 10 μM for 48 h. Doxorubicin (Sigma-Aldrich, St. Louis, USA), at a concentration of 1 μM, was used as a positive control. At the end of the culture period, the WST-1 proliferation assay (Roche, Basel, Switzerland) was performed according to the manufacturer’s protocol. The absorbance was determined using a Tecan Spark microplate reader (Tecan, Männedorf, Switzerland). Each value is the mean of three independent experiments and represents the percentage of the proliferation of control, nontreated cells (100%). The growth percent (GP) value as the mean of the proliferation decrease was calculated for each cell line and derivative tested.
# [1] = system: A2780 (ovarian carcinoma); assay: as above; assay type: cell-based; details: Homo sapiens, read-out: growth percent (GP) A2780
# From the text: as §3, §4
# [2] = system: HeLa (cervix adenocarcinoma); assay: as above; assay type: cell-based; details: Homo sapiens, 48 h, read-out: growth percent (GP) HeLa
# From the text: as §3, §4
# [3] = system: MRC-5 (nontumor lung fibroblasts); assay: as above; assay type: cell-based; details: Homo sapiens, read-out: growth percent (GP) MRC-5
# From the text: as §3, §4
# [4] = system: Jurkat (acute T-cell leukemia); assay: as above; assay type: cell-based; details: Homo sapiens, 48 h, read-out: growth percent (GP) Jurkat
# From the text: as §3, §4
# [5] = system: PANC-1 (pancreas epithelioid carcinoma); assay: as above; assay type: cell-based; details: Homo sapiens, read-out: growth percent (GP) PANC-1
# From the text: as §3, §4
# SAOS-2 (osteosarcoma) = assay: as above; assay type: cell-based; details: Homo sapiens, read-out: growth percent (GP) SAOS-2
# From the text: as §3, §4
# [6] = system: HT-29 (colorectal adenocarcinoma); assay: as above; assay type: cell-based; details: Homo sapiens, read-out: growth percent (GP) HT-29
# From the text: as §3, §4
# [7] = system: MOLT-4 (acute lymphoblastic leukemia); assay: as above; assay type: cell-based, human; details: for activity at 10 µM: Homo sapiens, read-out: growth percent (GP) MOLT-4
# From the text: as §3, §4
# [8] = system: MCF-7 (breast adenocarcinoma); assay: as above; assay type: cell-based, human; details: for activity at 10 µM: Homo sapiens, read-out: growth percent (GP) MCF-7
# From the text: as §3, §4
# [9] = system: nine human tumor and one nontumor cell lines; assay: Cytotoxicity screening across the whole panel of cell lines; assay type: cell-based; details: for activity at 10 µM: Homo sapiens, read-out: GP value across the tested cell lines
# From the text: Concerning the cytotoxicity of alkaloids isolated from Z. citrina, initially, Prakash and Vedanayaki investigated the MeOH extract of the bulbs for its in vitro cytotoxic activity using the MTT assay against three human cancer cell lines from different tissue origins: cervical cancer (HeLa), breast cancer (MCF-7), and oral squamous carcinoma (SCC-9). […] In this context, and to assess potential negative effects on human cell cultures, compounds 1, and 3–27 were screened in our study for cytotoxicity using a 10 μM single-dose regimen. The results were compared with those using the clinically approved antineoplastic agent doxorubicin at 1 μM. The effect on cell growth was investigated on nine human tumor and one nontumor cell lines, namely Jurkat (acute T-cell leukemia), MOLT-4 (acute lymphoblastic leukemia), A549 (lung carcinoma), HT-29 (colorectal adenocarcinoma), PANC-1 (pancreas epithelioid carcinoma), A2780 (ovarian carcinoma), HeLa (cervix adenocarcinoma), MCF-7 (breast adenocarcinoma), SAOS-2 (osteosarcoma) and MRC-5 (nontumor lung fibroblasts). […] No toxicity is valuable information, especially for compound 18, as it is a potent inhibitor of hAChE and hBChE.[27]
# Selected human tumor and nontumor cell lines Jurkat (acute T-cell leukemia), MOLT-4 (acute lymphoblastic leukemia), A549 (lung carcinoma), HT-29 (colorectal adenocarcinoma), PANC-1 (pancreas epithelioid carcinoma), A2780 (ovarian carcinoma), HeLa (cervix adenocarcinoma), MCF-7 (breast adenocarcinoma), SAOS-2 (osteosarcoma) and MRC-5 (nontumor lung fibroblasts) were purchased from European Collection of Authenticated Cell Cultures (ECACC, Salisbury, UK) and cultured according to the provider’s culture method guidelines. All cell lines were maintained at 37 °C in a humidified 5% carbon dioxide and 95% air incubator. The cells in low passage number (nontumor primary cell line MRC-5 was used for a maximum of 10 passages and cancer cell lines were used for a maximum of 20 passages) and in an exponential growth phase were used for this study.
# as §4
# [10] = 10 μM single dose, 48-h interval, all tested cell lines
# [11] = c = 10 μM, 48 h, % of proliferation of nontreated control
# [12] = A549, c = 10 μM, 48 h, % of proliferation of nontreated control
# [13] = A2780, c = 10 μM, 48 h, % of proliferation of nontreated control
# [14] = c = 10 μM, % of proliferation of nontreated control
# [15] = MRC5, c = 10 μM, 48 h, % of proliferation of nontreated control
# [16] = PANC-1, c = 10 μM, 48 h, % of proliferation of nontreated control
# [17] = SAOS-2, c = 10 μM, 48 h, % of proliferation of nontreated control
# [18] = HT-29, c = 10 μM, 48 h, % of proliferation of nontreated control
# [19] = MOLT-4, c = 10 μM, 48 h, % of proliferation of nontreated control
# [20] = MCF7, c = 10 μM, 48 h, % of proliferation of nontreated control
# T1 sequence (P06276 29-602): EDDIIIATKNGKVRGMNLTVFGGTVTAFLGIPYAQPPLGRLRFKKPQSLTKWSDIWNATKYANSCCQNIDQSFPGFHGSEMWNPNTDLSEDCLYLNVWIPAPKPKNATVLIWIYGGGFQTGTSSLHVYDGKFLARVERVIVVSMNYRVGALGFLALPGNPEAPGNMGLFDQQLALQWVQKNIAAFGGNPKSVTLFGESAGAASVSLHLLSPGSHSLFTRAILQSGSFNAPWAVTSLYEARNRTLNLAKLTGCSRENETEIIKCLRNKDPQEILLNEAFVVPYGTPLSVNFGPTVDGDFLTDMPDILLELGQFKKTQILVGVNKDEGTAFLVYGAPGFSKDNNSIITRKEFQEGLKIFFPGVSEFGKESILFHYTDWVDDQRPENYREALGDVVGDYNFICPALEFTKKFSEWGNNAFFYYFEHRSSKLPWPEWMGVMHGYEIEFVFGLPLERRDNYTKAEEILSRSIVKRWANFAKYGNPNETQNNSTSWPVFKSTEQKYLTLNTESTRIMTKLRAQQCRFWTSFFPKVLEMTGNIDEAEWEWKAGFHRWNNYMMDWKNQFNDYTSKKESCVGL
Compound,"activity at 10 µM (A549 (lung carcinoma); A549, 48 h) [%]","activity at 10 µM ([1]; A2780, 48 h) [%]",activity at 10 µM [2] [%],"activity at 10 µM ([3]; MRC5, 48 h) [%]",activity at 10 µM [4] [%],"activity at 10 µM ([5]; PANC-1, 48 h) [%]","activity at 10 µM (SAOS-2 (osteosarcoma); SAOS-2, 48 h) [%]","activity at 10 µM ([6]; HT-29, 48 h) [%]","activity at 10 µM ([7]; MOLT-4, 48 h) [%]","activity at 10 µM ([8]; MCF7, 48 h) [%]",activity at 10 µM ([9]; 48 h) [%],further results
"COc1cc2c(cc1OC)[C@@H]1[C@H](O)[C@@H](OC)[C@H](O)C3=CCN(C2=O)[C@H]31 [Compound 2, 6-oxonarcissidine]",,,,,,,,,,,,IC50 (hBChE): > 100 µM; IC50 (hAChE): > 100 µM
O[C@@H]1C=C[C@]23CCN(Cc4cc5c(cc42)OCO5)[C@H]3C1 [Compound 14],80,98,100,83,91,84,79,84,92,79,> 50,
"COc1cc2c(cc1OC)[C@@]13C=CC(O)C[C@@H]1N(CC3)C2 (some centres unmarked) [Compound 15, maritidine]",95,94,101,104,104,91,94,93,100,98,> 50,"GP value across the tested cell lines [9, 10]: lack of inhibitory activity"
COc1cc2c(cc1O)CN1CC[C@@]23C=CC(O)C[C@H]13 (some centres unmarked) [Compound 16],106,101,114,97,102,101,98,103,110,105,> 50,
COC1C=C[C@@]23CCN(Cc4cc5c(cc42)OCO5)[C@@H]3C1 (some centres unmarked) [Compound 17],60,55,75,82,52,77,76,71,32,49,> 50,"growth percent (GP) MOLT-4 [7, 11]: slight inhibition of growth; growth percent (GP) MCF-7 [8, 11]: slight inhibition of growth"
"COc1cc(-c2cccc3c2N(C)CC3)c(CN2CC[C@@]34C=C[C@H](O)C[C@@H]3Oc3c(OC)ccc(c34)C2)c(OC)c1OC [Compound 18, narcielline]",110,88,90,111,103,111,106,106,95,115,> 50,
COc1cc2c(c(OC)c1OC)[C@@H](O)O[C@@H]1CC=C3CCN(C)[C@H]3[C@H]21 [Compound 21],,,,,,,,,,,,"activity at 10 µM (A549 (lung carcinoma); [12]): 101%; activity at 10 µM [1, 13]: 95%; activity at 10 µM [2, 14]: 112%; activity at 10 µM [3, 15]: 101%; activity at 10 µM [4, 14]: 91%; activity at 10 µM [5, 16]: 90%; activity at 10 µM (SAOS-2 (osteosarcoma); [17]): 105%; activity at 10 µM [6, 18]: 83%; activity at 10 µM [7, 19]: 93%; activity at 10 µM [8, 20]: 92%; activity at 10 µM [9, 10]: > 50%"
COc1cc2c(cc1O)C(=O)O[C@@H]1CC=C3CCN(C)[C@H]3[C@H]21 [Compound 22],109,94,96,93,100,92,103,106,100,102,> 50,
COc1cc2c(cc1OC)[C@@H]1[C@H](O)[C@@H](O)C=C3CCN(C2)[C@H]31 [Compound 24],104,99,116,96,109,109,98,114,103,104,> 50,
COc1cc2c(cc1O)[C@@H]1[C@H](O)[C@@H](OC)C=C3CCN(C2)[C@H]31 [Compound 25],,,,,,,,,,,,"activity at 10 µM (A549 (lung carcinoma); [12]): 83%; activity at 10 µM [1, 13]: 125%; activity at 10 µM [2, 14]: 110%; activity at 10 µM [3, 15]: 92%; activity at 10 µM [4, 14]: 91%; activity at 10 µM [5, 16]: 83%; activity at 10 µM (SAOS-2 (osteosarcoma); [17]): 71%; activity at 10 µM [6, 18]: 94%; activity at 10 µM [7, 19]: 88%; activity at 10 µM [8, 20]: 102%; activity at 10 µM [9, 10]: > 50%"
